Calls of active or inactive are those of the source. No cut-off for these calls is given here.
Columns and labels:
[1] = Octanol-buffer partition coefficient, log D of the compound at pH 7.4 by shake-flask method; assay type: physicochemical
[2] = Aqueous solubility of the compound by turbidimetric solubility assay; assay type: physicochemical; conditions: buffer
[3] = Apparent permeability across apical to basolateral side in human Caco2 cells; assay type: ADME, cell-based; conditions: Caco-2
[4] = Apparent permeability across basolateral to apical side in human Caco2 cells; assay type: ADME, cell-based; conditions: Caco-2
[5] = Half life in rat liver microsomes; assay type: ADME
[6] = biological target: Voltage-gated inwardly rectifying potassium channel KCNH2 (Homo sapiens, UniProt Q12809); test: Inhibition of human ERG expressed in CHO cells
[7] = AUC (0 to t) in mouse at 40 mg/kg, po after 24 hrs; assay type: ADME, organism-based; design: time < 24 hr, dose 40 mg/kg, route oral; conditions: plasma
[8] = Oral bioavailability (0 to infinity) in mouse at 40 mg/kg after 24 hrs; assay type: ADME, organism-based; conditions: in vivo
A2780 [9] = test: Antitumor activity against human A2780 cells xenografted in mouse assessed as delay tumor growth at 50 mg/kg, po administered every second day for 2 weeks; assay type: functional
WI-38 [10] = test: Selectivity ratio of IC50 for human WI38 cells to IC50 for ER negative human MDA-MB-231 cells; assay type: functional
HeLa [11] = test: Selectivity ratio of IC50 for human WI38 cells to IC50 for human HeLa cells; assay type: functional
PANC-1 = test: Selectivity ratio of IC50 for human WI38 cells to IC50 for human PANC1 cells; assay type: functional
MCF7 [12] = test: Ratio of ON01910 IC50 to compound IC50 for ER positive human MCF7 cells; assay type: functional
MDA-MB-231 [13] = test: Ratio of ON01910 IC50 to compound IC50 for ER negative human MDA-MB-231 cells; assay type: functional
HeLa [14] = test: Ratio of ON01910 IC50 to compound IC50 for human HeLa cells; assay type: functional
DU-145 [15] = test: Ratio of ON01910 IC50 to compound IC50 for AR negative human DU145 cells; assay type: functional
LNCaP = test: Ratio of ON01910 IC50 to compound IC50 for AR positive human LNCAP cells; assay type: functional
HCT-116 = test: Ratio of ON01910 IC50 to compound IC50 for human HCT116 cells; assay type: functional
A2780 [16] = test: Antiproliferative activity against human A2780 cells assessed as cell growth inhibition after 72 hrs by MTT assay; assay type: functional; conditions: A2780, 72 h
MCF7 [17] = test: Antiproliferative activity against ER positive human MCF7 cells assessed as cell growth inhibition after 72 hrs by MTT assay; assay type: functional; conditions: MCF7, 72 h
MDA-MB-231 [18] = test: Antiproliferative activity against ER negative human MDA-MB-231 cells assessed as cell growth inhibition after 72 hrs by MTT assay; assay type: functional; conditions: MDA-MB-231, 72 h
DU-145 [19] = test: Antiproliferative activity against AR negative human DU145 cells assessed as cell growth inhibition after 72 hrs by MTT assay; assay type: functional; conditions: DU-145, 72 h
A2780 [20] = test: Cell cycle arrest in human A2780 cells assessed as accumulation at subG1 phase at 0.06 uM after 24 hrs by flow cytometric analysis (reference value: 0.62%); assay type: functional
A2780 [21] = test: Cell cycle arrest in human A2780 cells assessed as accumulation at G2/M phase at 0.06 uM after 24 hrs by flow cytometric analysis (reference value: 21.81%); assay type: functional
A2780 [22] = test: Cell cycle arrest in human A2780 cells assessed as accumulation at G1 phase at […] after 24 hrs by flow cytometric analysis (reference value: 54.89%); assay type: functional
A2780 [23] = test: Cell cycle arrest in human A2780 cells assessed as accumulation at S phase at […] after 24 hrs by flow cytometric analysis (reference value: 22.72%); assay type: functional
A2780 [24] = test: Cell cycle arrest in human A2780 cells assessed as accumulation at G2/M phase at 1 uM after 24 hrs by flow cytometric analysis (reference value: 21.81%); assay type: functional
WI-38 [25] = test: Cell cycle arrest in human WI38 cells assessed as accumulation at subG1 phase at 0.06 uM after 24 hrs by flow cytometric analysis (reference value: 10.53%); assay type: functional
WI-38 [26] = test: Cell cycle arrest in human WI38 cells assessed as accumulation at G1 phase at […] after 24 hrs by flow cytometric analysis (reference value: 55.89%); assay type: functional
WI-38 [27] = test: Cell cycle arrest in human WI38 cells assessed as accumulation at S phase at […] after 24 hrs by flow cytometric analysis (reference value: 16.25%); assay type: functional
WI-38 [28] = test: Cell cycle arrest in human WI38 cells assessed as accumulation at S phase at 1 uM after 24 hrs by flow cytometric analysis (reference value: 16.25%); assay type: functional
WI-38 [29] = test: Cell cycle arrest in human WI38 cells assessed as accumulation at G2/M phase at 1 uM after 24 hrs by flow cytometric analysis (reference value: 17.36%); assay type: functional
A2780 [30] = test: Induction of apoptosis in human A2780 cells assessed as necrotic cells at 1 uM after 48 hrs by annexin V/PI double staining (reference value: 0.53%); assay type: functional
A2780 [31] = test: Induction of apoptosis in human A2780 cells assessed as early-stage apoptotic cells at 1 uM after 48 hrs by annexin V/PI double staining (reference value: 7.13%); assay type: functional
A2780 [32] = test: Induction of apoptosis in human A2780 cells assessed as viable cells at 1 uM after 48 hrs by annexin V/PI double staining (reference value: 82.12%); assay type: functional; conditions: A2780, 48 h, read-out: Activity
WI-38 [33] = test: Induction of apoptosis in human WI38 cells assessed as late-stage apoptotic cells at 0.06 uM after 48 hrs by annexin V/PI double staining (reference value: 16.26%); assay type: functional
WI-38 [34] = test: Induction of apoptosis in human WI38 cells assessed as necrotic cells at […] after 48 hrs by annexin V/PI double staining (reference value: 0.99%); assay type: functional
A2780 [35] = test: Induction of apoptosis in human A2780 cells assessed as caspase-3/7 activation at 0.06 uM after 24 hrs by using Apo-ONE homogeneous caspase-3/7 kit; assay type: functional, cell-based
WI-38 [36] = test: Induction of apoptosis in human WI38 cells assessed as caspase-3/7 activation up to 1 uM after 24 hrs by using Apo-ONE homogeneous caspase-3/7 kit; assay type: functional, cell-based
A2780 [37] = test: Reduction in CDC25C level in human A2780 cells at 0.03 uM after 24 hrs by Western blot analysis; assay type: functional, cell-based
A2780 [38] = test: Reduction in Mcl1 level in human A2780 cells at 0.03 uM after 24 hrs by Western blot analysis; assay type: functional, cell-based
[39] = Dissociation constant, pKa of the compound by pH-metric method; assay type: physicochemical
[40] = AUC (0 to t) in mouse at 10 mg/kg, po after 24 hrs; assay type: ADME, organism-based; design: time < 24 hr, dose 10 mg/kg, route oral; conditions: plasma
[41] = Elimination half life in mouse at 10 mg/kg, po after 24 hrs; assay type: ADME, organism-based; design: dose 10 mg/kg, route oral; conditions: in vivo, read-out: beta t1/2 (converted)
[42] = Oral bioavailability (0 to t) in mouse at 10 mg/kg after 24 hrs; assay type: ADME, organism-based; conditions: in vivo
A2780 [43] = test: Induction of apoptosis in human A2780 cells assessed as caspase-3/7 activation at 1 uM after 24 hrs by using Apo-ONE homogeneous caspase-3/7 kit; assay type: functional, cell-based

Chain of Voltage-gated inwardly rectifying potassium channel KCNH2 (Q12809 whole entry): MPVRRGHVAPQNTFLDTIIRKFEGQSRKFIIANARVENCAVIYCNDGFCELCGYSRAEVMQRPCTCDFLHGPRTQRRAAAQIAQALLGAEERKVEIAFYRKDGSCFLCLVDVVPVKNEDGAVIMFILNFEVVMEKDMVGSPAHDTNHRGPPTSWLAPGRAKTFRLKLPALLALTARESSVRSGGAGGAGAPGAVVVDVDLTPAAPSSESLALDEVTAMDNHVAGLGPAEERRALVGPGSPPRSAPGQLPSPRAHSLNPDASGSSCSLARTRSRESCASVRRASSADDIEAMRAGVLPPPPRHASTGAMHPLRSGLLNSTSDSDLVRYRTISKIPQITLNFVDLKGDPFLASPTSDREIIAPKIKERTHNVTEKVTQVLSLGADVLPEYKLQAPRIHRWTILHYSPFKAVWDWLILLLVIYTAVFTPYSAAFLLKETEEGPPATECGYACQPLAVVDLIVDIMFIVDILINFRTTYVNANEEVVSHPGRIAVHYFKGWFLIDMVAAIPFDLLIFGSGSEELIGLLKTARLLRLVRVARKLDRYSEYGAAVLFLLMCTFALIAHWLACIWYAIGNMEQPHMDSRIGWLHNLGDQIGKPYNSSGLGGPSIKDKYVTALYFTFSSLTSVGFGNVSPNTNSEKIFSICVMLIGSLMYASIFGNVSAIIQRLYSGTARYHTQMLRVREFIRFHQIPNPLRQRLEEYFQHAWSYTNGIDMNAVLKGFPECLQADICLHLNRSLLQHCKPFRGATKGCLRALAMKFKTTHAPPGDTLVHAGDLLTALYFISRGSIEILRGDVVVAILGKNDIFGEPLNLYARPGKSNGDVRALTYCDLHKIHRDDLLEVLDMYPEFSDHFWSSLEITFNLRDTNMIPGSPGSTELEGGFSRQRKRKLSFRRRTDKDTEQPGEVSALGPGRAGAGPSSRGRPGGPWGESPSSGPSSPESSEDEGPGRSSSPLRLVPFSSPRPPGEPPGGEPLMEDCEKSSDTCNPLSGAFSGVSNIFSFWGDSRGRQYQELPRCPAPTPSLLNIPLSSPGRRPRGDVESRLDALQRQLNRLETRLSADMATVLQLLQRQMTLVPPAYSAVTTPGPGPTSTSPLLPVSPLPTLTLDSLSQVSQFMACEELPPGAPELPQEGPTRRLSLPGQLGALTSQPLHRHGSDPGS

## COc1cc(OC)c(/C=C/S(=O)(=O)Cc2ccc(OC)c(N)n2)c(OC)c1
[1]
  logD: 2.41
[2]
  solubility kinetic: > 100 µM
[3]
  Papp A→B: 33.1 ×10⁻⁶ cm/s
[4]
  Papp B→A: 26.2 ×10⁻⁶ cm/s
[5]
  half-life: 0.25 h
[6]
  IC50: > 25000 nM
[7]
  AUC(0-t) at 24 h: 23.1 µM·h
[8]
  bioavailability: 68%
A2780 [9]
  Activity: 52%
WI-38 [10]
  Ratio IC50: >1400
HeLa [11]
  Ratio IC50: >1400
PANC-1
  Ratio IC50: >1400
MCF7 [12]
  Ratio IC50: 10
MDA-MB-231 [13]
  Ratio IC50: 10
HeLa [14]
  Ratio IC50: 10
DU-145 [15]
  Ratio IC50: 10
LNCaP
  Ratio IC50: 10
HCT-116
  Ratio IC50: 10
A2780 [16]
  GI50: 7 nM
MCF7 [17]
  GI50: 6 nM
MDA-MB-231 [18]
  GI50: 7 nM
DU-145 [19]
  GI50: 6 nM
A2780 [20]
  Activity: 10.06%
A2780 [21]
  Activity: 59.72%
A2780 [22]
  Activity: 14.1%
A2780 [23]
  Activity: 22.54%
A2780 [24]
  Activity: 59.78%
WI-38 [25]
  Activity: 13.31%
WI-38 [26]
  Activity: 53.55%
WI-38 [27]
  Activity: 9.5%
WI-38 [28]
  Activity: 6.87%
WI-38 [29]
  Activity: 24.94%
A2780 [30]
  Activity: 1.11%
A2780 [31]
  Activity: 55.45%
A2780 [32]
  viability at 1 µM: 22.2%
WI-38 [33]
  Activity: 13.04%
WI-38 [34]
  Activity: 5.41%
A2780 [35]
  Activity: Active
WI-38 [36]
  Activity: inactive
A2780 [37]
  inhibition: Active
A2780 [38]
  inhibition: Active
[39]
  pKa: 4.67

## COc1cc(OC)c(/C=C/S(=O)(=O)Cc2ccc(OC)c(NCC(=O)O)c2)c(OC)c1 [RIGOSERTIB]
A2780 [16]
  GI50: 62 nM
MCF7 [17]
  GI50: 50 nM
MDA-MB-231 [18]
  GI50: 57 nM
DU-145 [19]
  GI50: 75 nM
A2780 [20]
  Activity: 0.63%
A2780 [21]
  Activity: 19.63%
A2780 [22]
  Activity: 37.71%
A2780 [23]
  Activity: 24.81%
A2780 [24]
  Activity: 60.57%
WI-38 [25]
  Activity: 5.71%
WI-38 [26]
  Activity: 54.39%
WI-38 [27]
  Activity: 9.32%
WI-38 [28]
  Activity: 10.36%
WI-38 [29]
  Activity: 19.27%
A2780 [30]
  Activity: 1.19%
A2780 [31]
  Activity: 50.22%
A2780 [32]
  viability at 1 µM: 26.6%
WI-38 [33]
  Activity: 11.54%
WI-38 [34]
  Activity: 1.89%

## COc1cc(OC)c(/C=C/S(=O)(=O)Cc2ccc(OC)c(NS(C)(=O)=O)n2)c(OC)c1
[1]
  logD: 1.53
[2]
  solubility kinetic: > 100 µM
[3]
  Papp A→B: 3.15 ×10⁻⁶ cm/s
[4]
  Papp B→A: 53.4 ×10⁻⁶ cm/s
[5]
  half-life: 1.88 h
[6]
  IC50: > 25000 nM
[40]
  AUC(0-t) at 24 h: 5.6 µM·h
[41]
  half-life: 4.6 h
[42]
  bioavailability: 50%
A2780 [16]
  GI50: 406 nM
MCF7 [17]
  GI50: 468 nM
MDA-MB-231 [18]
  GI50: 641 nM
DU-145 [19]
  GI50: 484 nM
A2780 [20]
  Activity: 0.95%
A2780 [21]
  Activity: 21.08%
A2780 [22]
  Activity: 57.35%
A2780 [23]
  Activity: 22.53%
A2780 [24]
  Activity: 59.38%
WI-38 [25]
  Activity: 10.05%
WI-38 [26]
  Activity: 61.63%
WI-38 [27]
  Activity: 13.26%
WI-38 [28]
  Activity: 9.93%
WI-38 [29]
  Activity: 26.14%
A2780 [30]
  Activity: 1.31%
A2780 [31]
  Activity: 38.36%
A2780 [32]
  viability at 1 µM: 35.6%
WI-38 [33]
  Activity: 18.51%
WI-38 [34]
  Activity: 1.11%
A2780 [43]
  Activity: Active
WI-38 [36]
  Activity: inactive
[39]
  pKa: 7.28

Reference: ChEMBL document CHEMBL3259791, “Discovery of (E)-3-((styrylsulfonyl)methyl)pyridine and (E)-2-((styrylsulfonyl)methyl)pyridine derivatives as anticancer agents: synthesis, structure-activity relationships, and biological activities” (J Med Chem, 2014)
